The source of these data is patent publication US20250223300A1, “MACROCYCLIC COMPOUND AND PHARMACEUTICAL COMPOSITION AND USE THEREOF” (BETTA PHARMACEUTICALS CO., LTD, priority 2022, published 2025).

The nature of data set [1]: Metabolic stability of liver microsomes, dog. It counts as in vitro ADME. The note with it: NADPH, 0-45 min, read-out: CLint(μL/min/mg protein) Dog. Here is the method:
(§1) The liver microsomes of human, rat, mouse and dog were used to study the metabolic stability of the compounds. The specific experimental steps are as follows: • (1) Add 40 μL MgCl2 and 306 μL PBS to each well of a 96-well plate, and then add 4 μL compound, with a final DMSO concentration of ≤0.5%. Set up a blank well without compound; • (2) Add 10 μL of 20 mg/mL liver microsomes to each well, incubate at 37° C. for 10 min; • (3) Add 40 μL NADPH working solution to each well to start the reaction, and set up a control well without NADPH; • (4) At 0, 5, 15, and 45 min after the start of the reaction, 50 μL of sample was taken out, the termination solution was added, and the mixture was shaken for 5 min. • (5) The samples were then centrifuged at 3,220 g for 10 min, and 50 μL of the supernatant was removed and was added 200 μL water for dilution and analysis by LC-MS/MS.
(§2) The in vitro intrinsic clearance (in vitro CLint, in μL/min/mg) was calculated from the in vitro half-life t1/2 (minutes) using the following equation (mean of replicates):
(§3) In vitro clearance rate=0.693/in vitro half-life t1/2×[incubation volume (μL)/(protein amount (mg)]
In general terms: Liver microsomes are a subcellular fraction often used to study metabolism.

The test system of data set [2] is A431 cell carrying EGFR WT. Put plainly: Cell proliferation inhibitory activity assay, A431. It counts as cell-based. The note with it: Homo sapiens, A-431; cell proliferation inhibition, 72 hours, luminescence. Put shortly:
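A431 cells, an adherent human line carrying wild-type EGFR, were grown in DMEM supplemented with 10% FBS and 1% PS. Log-phase cells were trypsinized, counted and plated into 96-well plates at a set density, then left overnight at 37° C. and 5% CO2 to attach. IC50 values came from fitting inhibition rate against log compound concentration.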

In data set [3] the target is Ba/F3 (EGFR L858R/T790M/C797S) (Homo sapiens, UniProt P00533, T790M/C797S/L858R, cells depend on it). Put plainly: Cell proliferation inhibitory activity assay, Ba/F3 EGFR L858R/T790M/C797S. The note with it: cell proliferation inhibition, 72 hours, luminescence; read-out: Ba/F3 cells overexpressing different EGFR mutations IC50 (nM) L858R/T790M/C797S. It is filed as cell-based. Put shortly: (§4)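 Ba/F3 cells overexpressing the indicated EGFR mutants, grown in RPMI 1640 with 10% FBS, were treated with compound at 37 °C, 5% CO2. Cell survival inhibition rate plotted against log compound concentration; IC50 from four-parameter sigmoidal fit.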
Sequence of Ba/F3 (EGFR L858R/T790M/C797S) (P00533 whole entry T790M/C797S/L858R): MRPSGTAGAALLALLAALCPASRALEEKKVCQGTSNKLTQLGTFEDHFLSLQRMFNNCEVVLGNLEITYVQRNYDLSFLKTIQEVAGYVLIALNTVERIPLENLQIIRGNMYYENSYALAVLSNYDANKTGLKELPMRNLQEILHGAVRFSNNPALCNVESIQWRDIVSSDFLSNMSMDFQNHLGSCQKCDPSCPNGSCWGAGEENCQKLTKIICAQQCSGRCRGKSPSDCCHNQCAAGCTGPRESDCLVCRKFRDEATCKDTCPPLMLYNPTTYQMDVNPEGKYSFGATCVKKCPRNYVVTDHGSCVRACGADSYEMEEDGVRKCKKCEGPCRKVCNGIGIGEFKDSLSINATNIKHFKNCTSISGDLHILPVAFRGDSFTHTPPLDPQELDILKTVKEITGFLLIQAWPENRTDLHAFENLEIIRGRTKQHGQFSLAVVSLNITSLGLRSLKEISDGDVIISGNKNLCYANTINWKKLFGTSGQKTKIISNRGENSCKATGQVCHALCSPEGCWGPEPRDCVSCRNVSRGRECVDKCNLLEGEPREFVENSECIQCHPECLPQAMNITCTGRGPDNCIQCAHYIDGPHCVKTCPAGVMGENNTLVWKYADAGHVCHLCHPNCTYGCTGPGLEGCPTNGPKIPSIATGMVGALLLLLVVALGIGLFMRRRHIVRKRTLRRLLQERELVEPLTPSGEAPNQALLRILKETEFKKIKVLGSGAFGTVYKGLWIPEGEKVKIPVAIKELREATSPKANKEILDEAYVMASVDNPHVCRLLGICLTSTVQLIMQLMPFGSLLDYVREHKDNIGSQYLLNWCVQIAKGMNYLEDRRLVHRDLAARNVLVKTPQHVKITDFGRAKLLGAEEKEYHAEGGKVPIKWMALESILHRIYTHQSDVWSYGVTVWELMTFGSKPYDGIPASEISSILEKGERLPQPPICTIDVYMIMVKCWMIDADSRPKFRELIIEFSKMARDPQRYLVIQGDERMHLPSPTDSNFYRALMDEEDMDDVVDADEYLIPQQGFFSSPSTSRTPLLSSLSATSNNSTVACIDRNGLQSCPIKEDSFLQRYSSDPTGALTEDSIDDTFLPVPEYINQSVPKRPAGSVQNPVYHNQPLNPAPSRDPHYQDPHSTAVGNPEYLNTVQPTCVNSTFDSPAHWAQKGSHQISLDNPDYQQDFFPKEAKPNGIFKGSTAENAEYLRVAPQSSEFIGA

Another data set has as its target Ba/F3 (EGFR L858R/C797S) (Homo sapiens, UniProt P00533, C797S/L858R, cells depend on it). Put plainly: Cell proliferation inhibitory activity assay, Ba/F3 EGFR L858R/C797S. It is filed as cell-based. The note with it: cell proliferation inhibition, 72 hours, luminescence; read-out: Ba/F3 cells overexpressing different EGFR mutations IC50 (nM) L858R/C797S. In a few lines:
as §4

Another data set has as its target Ba/F3 (EGFR Del19/C797S) (Homo sapiens, UniProt P00533, C797S, cells depend on it, form not given). Put plainly: Cell proliferation inhibitory activity assay, Ba/F3 EGFR Del19/C797S. It counts as cell-based. As to conditions: cell proliferation inhibition, 72 hours, luminescence; read-out: Ba/F3 cells overexpressing different EGFR mutations IC50 (nM) Del19/C797S. Put shortly: as §4

Data set [4] addresses Ba/F3 cells overexpressing EGFR Del19/T790M/C797S (Homo sapiens, UniProt P00533, T790M/C797S, cells depend on it, form not given). Put plainly: Cell proliferation inhibitory activity assay, Ba/F3 EGFR Del19/T790M/C797S. It counts as cell-based. The note with it: cell proliferation inhibition, 72 hours, luminescence; read-out: Ba/F3 cells overexpressing different EGFR mutations IC50 (nM) Del19/T790M/C797S. Put shortly:
as §4

Data set [5] is described as follows: Metabolic stability of liver microsomes, rat. It is filed as in vitro ADME. As to conditions: NADPH, 0-45 min, read-out: CLint(μL/min/mg protein) Rat. Here is the method:
as §1, §2, §3

The nature of data set [6]: Metabolic stability of liver microsomes, mouse. It is filed as in vitro ADME. As to conditions: NADPH, 0-45 min, read-out: CLint(μL/min/mg protein) Mouse. As to the method:
as §1, §2, §3

A short description of data set [7]: Metabolic stability of liver microsomes, human. It is filed as in vitro ADME. The note with it: NADPH, 0-45 min, read-out: CLint(μL/min/mg protein) Human. Here is the method:
as §1, §2, §3

Another data set can be described thus: Pharmacokinetics in rats. The note with it: rat, po, male SD rats, 5 mg/kg orally by gavage, plasma. It is filed as in vivo, rat. As to the method:
Male SD rats (200-300 g) were used for rat PK studies. Compounds were prepared and prepared immediately before use. Rats were administered intravenously or orally by gavage. Blood was collected from the rats through the orbital venous plexus, and 100 μL whole blood was collected into K2-EDTA tubes at each time point.
1 mg/kg was given intravenously, and whole blood was collected at 0.083, 0,25, $0.5, 1, 2, 4, 7, 24, 48, and 72 h after administration; 5 mg/kg were given orally by gavage, and whole blood was collected at 0.25, 0.5, 1, 2, 4, 7, 24, 48, and 72 h after administration in different batches, or the rats were killed at 4 and 24 h to obtain brains. The brain tissue samples were homogenized by adding 4 times the volume of buffer, and the whole blood and brain tissue samples were stored in a −80° C. refrigerator for later use. After the above whole blood and brain tissue samples were precipitated with acetonitrile for protein, the supernatant was taken and mixed with water in a ratio of 1:2, and 10 μL was taken for LC-MS/MS detection.

A further data set in a line: Pharmacokinetics in mice. It counts as in vivo, mouse. As to conditions: mouse, po, female BALB/c mice, 5 mg/kg orally by gavage, plasma. As to the method:
Mouse PK studies were performed using female BALB/c mice (20-30 g). Compounds were prepared and prepared immediately before use. Mice were administered intravenously or orally by gavage. Blood was collected from the mouse orbital venous plexus, and 100 μL of whole blood was transferred to a K2-EDTA tube at each time point.
1 mg/kg was given intravenously, and whole blood was collected at 0.083, 0.25, 0.5, 1, 2, 4, 6 and 24 h after administration; 5 mg/kg were given orally by gavage, and whole blood was collected at 0.25, 0.5, 1, 2, 4, 6, 24 h after administration in different batches, or the mice were killed at 2, 4 and 6 h to obtain brains. Whole blood samples were centrifuged and plasma was separated; brain tissue samples were homogenized by adding 4 times the volume of buffer, and the plasma and brain tissue samples were stored in a −80° C. refrigerator for later use. After the above plasma and brain tissue samples were precipitated with acetonitrile for protein, the supernatant was taken and mixed with water in a 1:1 ratio, and 10 μL was taken for LC-MS/MS detection.

Sequence of Ba/F3 cells overexpressing EGFR Del19/T790M/C797S (P00533 with tags, fused parts or gaps DEL746-750/T790M/C797S, form open): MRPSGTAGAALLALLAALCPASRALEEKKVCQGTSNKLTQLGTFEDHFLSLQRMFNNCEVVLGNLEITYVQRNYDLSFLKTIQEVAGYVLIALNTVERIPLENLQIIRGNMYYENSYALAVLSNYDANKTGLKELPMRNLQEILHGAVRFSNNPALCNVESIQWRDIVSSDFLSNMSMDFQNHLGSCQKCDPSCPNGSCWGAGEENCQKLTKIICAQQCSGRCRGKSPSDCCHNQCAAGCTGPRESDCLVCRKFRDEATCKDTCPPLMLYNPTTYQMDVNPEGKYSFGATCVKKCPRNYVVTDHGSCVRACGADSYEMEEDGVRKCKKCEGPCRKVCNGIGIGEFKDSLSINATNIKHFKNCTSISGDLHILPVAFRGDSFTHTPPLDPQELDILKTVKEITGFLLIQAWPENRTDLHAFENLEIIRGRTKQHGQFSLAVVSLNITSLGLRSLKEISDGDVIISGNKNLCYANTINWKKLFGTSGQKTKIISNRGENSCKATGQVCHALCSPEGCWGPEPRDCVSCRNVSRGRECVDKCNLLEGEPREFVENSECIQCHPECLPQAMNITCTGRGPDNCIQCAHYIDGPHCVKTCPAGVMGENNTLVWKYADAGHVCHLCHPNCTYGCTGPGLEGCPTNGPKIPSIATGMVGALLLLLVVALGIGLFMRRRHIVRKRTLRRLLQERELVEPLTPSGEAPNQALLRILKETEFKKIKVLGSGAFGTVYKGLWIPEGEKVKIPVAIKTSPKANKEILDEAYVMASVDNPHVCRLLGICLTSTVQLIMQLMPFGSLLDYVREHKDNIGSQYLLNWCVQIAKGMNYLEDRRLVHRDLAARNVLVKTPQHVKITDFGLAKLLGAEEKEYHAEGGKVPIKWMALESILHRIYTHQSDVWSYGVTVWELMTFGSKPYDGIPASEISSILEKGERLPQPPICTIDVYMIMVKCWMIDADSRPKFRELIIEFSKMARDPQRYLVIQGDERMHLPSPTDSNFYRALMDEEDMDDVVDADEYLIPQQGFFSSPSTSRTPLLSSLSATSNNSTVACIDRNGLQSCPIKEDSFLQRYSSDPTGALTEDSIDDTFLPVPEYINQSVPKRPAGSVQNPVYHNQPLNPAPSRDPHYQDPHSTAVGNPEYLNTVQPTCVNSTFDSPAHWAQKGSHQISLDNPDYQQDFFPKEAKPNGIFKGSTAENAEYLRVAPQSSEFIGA
Sequence of Ba/F3 (EGFR Del19/C797S) (P00533 with tags, fused parts or gaps DEL746-750/C797S, form open): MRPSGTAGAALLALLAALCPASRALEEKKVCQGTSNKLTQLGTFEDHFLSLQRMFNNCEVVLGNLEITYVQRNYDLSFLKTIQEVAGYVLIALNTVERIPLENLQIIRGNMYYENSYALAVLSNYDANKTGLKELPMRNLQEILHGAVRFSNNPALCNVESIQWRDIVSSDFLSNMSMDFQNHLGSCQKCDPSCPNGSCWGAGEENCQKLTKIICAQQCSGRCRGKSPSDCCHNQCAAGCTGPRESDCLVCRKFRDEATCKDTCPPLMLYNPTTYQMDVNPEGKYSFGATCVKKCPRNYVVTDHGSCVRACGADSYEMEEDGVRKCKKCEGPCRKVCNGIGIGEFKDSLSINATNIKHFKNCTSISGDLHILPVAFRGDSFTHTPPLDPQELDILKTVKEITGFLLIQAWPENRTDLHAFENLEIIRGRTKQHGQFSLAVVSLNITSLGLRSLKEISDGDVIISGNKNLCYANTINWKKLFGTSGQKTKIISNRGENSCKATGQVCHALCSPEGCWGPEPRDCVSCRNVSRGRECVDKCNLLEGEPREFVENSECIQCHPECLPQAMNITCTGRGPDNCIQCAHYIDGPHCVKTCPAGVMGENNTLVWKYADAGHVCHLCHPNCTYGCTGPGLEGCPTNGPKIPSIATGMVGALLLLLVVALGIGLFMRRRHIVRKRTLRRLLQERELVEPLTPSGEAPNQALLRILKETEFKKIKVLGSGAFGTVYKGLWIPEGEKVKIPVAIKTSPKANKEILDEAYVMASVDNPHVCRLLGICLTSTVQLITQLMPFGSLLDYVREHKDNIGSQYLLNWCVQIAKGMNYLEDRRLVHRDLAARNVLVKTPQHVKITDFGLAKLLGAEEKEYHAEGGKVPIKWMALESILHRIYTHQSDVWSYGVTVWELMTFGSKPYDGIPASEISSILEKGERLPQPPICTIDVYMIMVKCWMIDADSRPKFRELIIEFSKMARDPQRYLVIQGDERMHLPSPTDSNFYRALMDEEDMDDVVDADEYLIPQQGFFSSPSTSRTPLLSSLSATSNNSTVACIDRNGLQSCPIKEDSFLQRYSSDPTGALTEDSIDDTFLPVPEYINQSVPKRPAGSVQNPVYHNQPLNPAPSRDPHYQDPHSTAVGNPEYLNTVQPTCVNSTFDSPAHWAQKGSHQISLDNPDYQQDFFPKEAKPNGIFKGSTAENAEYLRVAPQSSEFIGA
Sequence of Ba/F3 (EGFR L858R/C797S) (P00533 whole entry C797S/L858R): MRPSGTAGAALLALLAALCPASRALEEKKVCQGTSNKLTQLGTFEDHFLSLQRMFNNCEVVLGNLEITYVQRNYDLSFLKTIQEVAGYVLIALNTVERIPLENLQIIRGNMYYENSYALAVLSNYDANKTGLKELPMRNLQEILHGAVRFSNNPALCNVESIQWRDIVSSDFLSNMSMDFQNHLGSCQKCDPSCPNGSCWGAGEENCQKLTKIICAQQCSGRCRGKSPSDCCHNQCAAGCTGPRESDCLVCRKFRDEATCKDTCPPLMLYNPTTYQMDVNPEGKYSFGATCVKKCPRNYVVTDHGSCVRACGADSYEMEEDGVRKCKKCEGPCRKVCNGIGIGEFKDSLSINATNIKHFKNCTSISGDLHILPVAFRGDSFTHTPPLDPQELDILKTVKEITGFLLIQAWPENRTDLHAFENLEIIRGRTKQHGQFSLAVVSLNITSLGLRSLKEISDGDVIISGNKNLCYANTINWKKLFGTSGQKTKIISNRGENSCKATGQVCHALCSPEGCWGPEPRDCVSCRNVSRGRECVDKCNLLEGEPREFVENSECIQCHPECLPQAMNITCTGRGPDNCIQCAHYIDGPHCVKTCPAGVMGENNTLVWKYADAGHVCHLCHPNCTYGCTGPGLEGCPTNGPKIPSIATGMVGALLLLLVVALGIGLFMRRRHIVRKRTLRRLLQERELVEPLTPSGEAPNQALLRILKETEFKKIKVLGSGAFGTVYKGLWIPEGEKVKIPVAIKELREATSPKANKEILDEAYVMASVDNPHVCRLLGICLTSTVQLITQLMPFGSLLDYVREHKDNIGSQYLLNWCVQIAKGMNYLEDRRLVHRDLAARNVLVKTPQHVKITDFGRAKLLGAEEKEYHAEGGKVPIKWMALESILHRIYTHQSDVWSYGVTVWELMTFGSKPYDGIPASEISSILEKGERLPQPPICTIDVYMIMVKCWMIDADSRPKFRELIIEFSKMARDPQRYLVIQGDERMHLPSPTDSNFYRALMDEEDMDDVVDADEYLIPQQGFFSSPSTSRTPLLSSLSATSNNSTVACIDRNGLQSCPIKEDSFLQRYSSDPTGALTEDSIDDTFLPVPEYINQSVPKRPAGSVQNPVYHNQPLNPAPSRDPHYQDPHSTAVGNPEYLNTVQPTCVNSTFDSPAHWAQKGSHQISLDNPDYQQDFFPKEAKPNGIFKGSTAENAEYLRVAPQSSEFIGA

For `Cc1cc2cc(n1)-c1cnccc1OCCCCCn1c(nc3cc(C)c(N4CCC5(CCN(C)CC5)CC4)cc31)NC2=O` [Example 13, 2^6,5^5-dimethyl-5^6-(9-methyl-3,9-diazaspiro[5.5]undecan-3-yl)-5^1H-11-oxa-4-aza-5(2,1)-benzo[d]imidazola-1(3,4),2(2,4)-dipyridinacycloundecaphan-3-one], the microsomal CLint in data set [1] worked out at 4.2 µL/min/mg; in [5], 7 µL/min/mg; in data set [6], 6.2 µL/min/mg; in [7], 4 µL/min/mg. Also, the half-maximal inhibitory concentration (IC50) (commonly the concentration at which inhibition is half-maximal) in data set [2] was more than 3330 nM. The GI50 worked out at 2 nM in data set [3], 1.3 nM at Ba/F3 (EGFR L858R/C797S), 0.2 nM at Ba/F3 (EGFR Del19/C797S) and 0.96 nM in data set [4].

With `Cc1cc2cc(n1)-c1cnccc1OCCC[C@@H](C)Cn1c(nc3cc(F)c(N4CCC5(CCN(C)CC5)CC4)cc31)NC2=O` [Example 5, (R)-5^5-fluoro-2^6,7-dimethyl-5^6-(9-methyl-3,9-diazaspiro[5.5]undecan-3-yl)-5^1H-11-oxa-4-aza-5(2,1)-benzo[d]imidazola-1(3,4),2(2,4)-dipyridinacycloundecaphan-3-one], the microsomal CLint in data set [1] was 2.2 µL/min/mg; in data set [5], 8.9 µL/min/mg; in data set [6], 22.8 µL/min/mg; in [7] it was 9.1 µL/min/mg. This compound also registered an IC50 in [2] of 331 nM. The GI50 turned out to be 0.98 nM in data set [3], 0.88 nM at Ba/F3 (EGFR L858R/C797S), 0.19 nM at Ba/F3 (EGFR Del19/C797S) and 0.61 nM in [4].

Take `Cc1cc2cc(n1)-c1cnccc1OCCCCCn1c(nc3ccc(N4CCC5(CCN(C)CC5)CC4)cc31)NC2=O` [Example 1, 2^6-methyl-5^6-(9-methyl-3,9-diazaspiro[5.5]undecan-3-yl)-5^1H-11-oxa-4-aza-5(2,1)-benzo[d]imidazola-1(3,4),2(2,4)-dipyridinacycloundecaphan-3-one]: the microsomal CLint in data set [1] came to 8.9 µL/min/mg; in data set [5] it was 14.2 µL/min/mg; in [6] it was 32.7 µL/min/mg; in data set [7], 7.2 µL/min/mg. For the same compound, in [2], 1640 nM corresponded to half-maximal inhibition (IC50). The GI50 in data set [3] amounted to 0.62 nM; on Ba/F3 (EGFR L858R/C797S) it was 0.23 nM; on Ba/F3 (EGFR Del19/C797S), 0.08 nM; in [4], 0.24 nM.

Consider `Cc1cc2cc(n1)-c1cnccc1OCCC[C@@H](C)Cn1c(nc3cc(C)c(N4CCC5(CC4)CCN(C4COC4)CC5)cc31)NC2=O` [Example 12, (R)-2^6,5^5,7-trimethyl-5^6-(9-(oxetan-3-yl)-3,9-diazaspiro[5.5]undecan-3-yl)-5^1H-11-oxa-4-aza-5(2,1)-benzo[d]imidazola-1(3,4),2(2,4) -dipyridinacycloundecaphan-3-on], for which the microsomal CLint in [1] stood at 10.4 µL/min/mg; in data set [6] it was 5.5 µL/min/mg; in data set [7], 24.9 µL/min/mg. In data set [2], this compound gave a 50% inhibitory concentration (IC50) of 1000 nM. Besides, the GI50 in data set [3] worked out at 7.6 nM; at Ba/F3 (EGFR L858R/C797S), 4.4 nM; on Ba/F3 (EGFR Del19/C797S), 0.48 nM; in data set [4], 4.9 nM.

On to `Cc1cc2cc(n1)-c1cnccc1OCCCCCn1c(nc3ccc(N4CCC5(CCN(CC(C)(C)F)CC5)CC4)cc31)NC2=O` [Example 78, 5^6-(9-(2-fluoro-2-methylpropyl)-3,9-diazaspiro [5.5]undecan-3-yl)-2^6-methyl-5^1H-11-oxa-4-aza-5(2,1)-benzo[d] imidazola-1(3,4),2(2,4)-dipyridinacyclo-undecaphan-3-one], for which the microsomal CLint amounted to 22 µL/min/mg in data set [1], 12.2 µL/min/mg in [5], 69.5 µL/min/mg in data set [6] and 4.3 µL/min/mg in [7]. In [2], this compound registered an IC50 of more than 3330 nM. For the same compound, the GI50 in data set [3] is 12 nM; on Ba/F3 (EGFR L858R/C797S), 21 nM; at Ba/F3 (EGFR Del19/C797S) it was 3.3 nM; in [4], 5.9 nM.

For the compound `Cc1cc2cc(n1)-c1cnccc1OCCC[C@@H](C)Cn1c(nc3ccc(N4CCC5(CC4)CCN(C4COC4)CC5)cc31)NC2=O` [Example 4], the AUC(0-t) (as a rule, exposure summed from dosing to a finite time, without extrapolation to infinity) in “Pharmacokinetics in rats” turned out to be 2590 ng·h/mL; in “Pharmacokinetics in mice”, 2090 ng·h/mL. The half-life – broadly, the time needed for the level to fall by half in the phase considered – is 27.5 h in the data set “Pharmacokinetics in rats” and 5.28 h in the data set “Pharmacokinetics in mice”. For the same compound, the maximum concentration (Cmax) (commonly the highest concentration seen after dosing) worked out at 165 ng/mL in “Pharmacokinetics in rats” (read-out: Cmax) and 181 ng/mL in the data set “Pharmacokinetics in mice” (read-out: Cmax). The values for the microsomal CLint in data set [1], in data set [5] and in data set [7] were 24 µL/min/mg, 5.6 µL/min/mg and 26.3 µL/min/mg, respectively. In data set [2], this compound displayed an IC50 of 274 nM. The GI50 worked out at 1.1 nM in data set [3], 0.8 nM on Ba/F3 (EGFR L858R/C797S), 0.2 nM at Ba/F3 (EGFR Del19/C797S) and 0.2 nM in [4].

Regarding `Cc1cc2cc(n1)-c1cnccc1OCCC[C@@H](C)Cn1c(nc3ccc(N4CCC5(CCN(C)CC5)CC4)cc31)NC2=O` [Example 3, (R)-2^6,7-dimethyl-5^6-(9-methyl-3,9-diazaspiro[5.5]undecan-3-yl)-5^1H-11-oxa-4-aza-5(2,1)-benzo[d]imidazola-1(3,4)2(2,4)-dipyridinacycloundecaphan-3-one], the microsomal CLint in data set [1] worked out at 7.9 µL/min/mg; in data set [5], 8 µL/min/mg; in [6], 23.1 µL/min/mg; in [7], 6.6 µL/min/mg. The compound further came in with an IC50 in [2] of 759 nM. Moreover, the GI50 stood at 0.71 nM in data set [3], 0.44 nM on Ba/F3 (EGFR L858R/C797S), 0.07 nM at Ba/F3 (EGFR Del19/C797S) and 0.49 nM in [4].
